Laboratory results as given in article PMC3356581 (Bioorganic & medicinal chemistry, 2012).

Tests used:
[1] = system: catalepsy; settings: in vivo studies, five times the ED50 dose; cited from earlier work
[2] = target: T1, 5-HT1A receptor (Homo sapiens, UniProt P08908); settings: read-out: Binding data, Ki ± SEM, previously reported; cited from earlier work
T1 sequence (P08908 1-422): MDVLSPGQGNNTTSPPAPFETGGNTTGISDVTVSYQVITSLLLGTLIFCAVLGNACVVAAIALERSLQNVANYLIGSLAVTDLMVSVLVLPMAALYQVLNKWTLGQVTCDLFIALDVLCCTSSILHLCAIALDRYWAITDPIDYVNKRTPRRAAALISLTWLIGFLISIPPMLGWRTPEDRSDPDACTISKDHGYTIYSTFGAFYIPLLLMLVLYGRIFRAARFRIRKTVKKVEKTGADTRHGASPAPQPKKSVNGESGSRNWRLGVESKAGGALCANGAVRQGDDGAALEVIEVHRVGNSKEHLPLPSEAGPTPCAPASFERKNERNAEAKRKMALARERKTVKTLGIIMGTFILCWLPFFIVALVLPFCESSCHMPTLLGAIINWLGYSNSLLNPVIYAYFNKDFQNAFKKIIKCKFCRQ

[3] = target: T2, 5-HT2C receptor (Homo sapiens, UniProt P28335); settings: read-out: Binding data, Ki ± SEM, previously reported; cited from earlier work
T2 sequence (P28335 33-458): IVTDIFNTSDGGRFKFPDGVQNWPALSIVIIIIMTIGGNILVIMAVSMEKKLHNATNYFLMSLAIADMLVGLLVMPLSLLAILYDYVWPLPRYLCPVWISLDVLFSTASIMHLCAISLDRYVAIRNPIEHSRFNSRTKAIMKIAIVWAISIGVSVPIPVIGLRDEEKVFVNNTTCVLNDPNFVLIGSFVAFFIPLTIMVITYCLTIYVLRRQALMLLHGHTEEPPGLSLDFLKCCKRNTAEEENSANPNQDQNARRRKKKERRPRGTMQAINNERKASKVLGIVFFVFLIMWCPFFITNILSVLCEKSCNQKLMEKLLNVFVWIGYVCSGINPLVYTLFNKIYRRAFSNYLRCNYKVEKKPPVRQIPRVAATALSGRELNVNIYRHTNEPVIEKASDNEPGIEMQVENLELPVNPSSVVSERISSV

[4] = target: T3, D4 receptor (Homo sapiens, UniProt P21917); settings: read-out: Binding data, Ki ± SEM, previously reported; cited from earlier work
T3 sequence (P21917 1-419): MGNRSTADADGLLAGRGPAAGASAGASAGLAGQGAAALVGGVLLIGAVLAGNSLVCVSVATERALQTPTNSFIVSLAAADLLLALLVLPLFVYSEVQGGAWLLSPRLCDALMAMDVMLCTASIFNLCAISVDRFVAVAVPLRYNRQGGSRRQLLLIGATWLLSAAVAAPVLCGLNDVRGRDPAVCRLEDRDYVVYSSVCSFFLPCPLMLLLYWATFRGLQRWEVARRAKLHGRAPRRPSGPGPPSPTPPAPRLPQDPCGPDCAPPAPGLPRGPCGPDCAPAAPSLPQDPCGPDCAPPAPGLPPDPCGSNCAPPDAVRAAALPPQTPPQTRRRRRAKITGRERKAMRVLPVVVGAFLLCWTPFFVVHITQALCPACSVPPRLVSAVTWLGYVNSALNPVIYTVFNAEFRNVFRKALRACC

[5] = target: D2 receptor (Homo sapiens, UniProt P14416); assay: NIMH-PDSP radioligand binding, D2
[6] = target: T1, 5-HT1A receptor; assay: NIMH-PDSP radioligand binding, 5-HT1A
[7] = target: 5-HT2A receptor (Homo sapiens, UniProt P28223); assay: NIMH-PDSP radioligand binding, 5-HT2A
[8] = target: T2, 5-HT2C receptor; assay: NIMH-PDSP radioligand binding, 5-HT2C
[9] = target: T3, D4 receptor; assay: NIMH-PDSP radioligand binding, D4
[10] = target: Histamine H1 receptor (Homo sapiens, UniProt P35367); assay: NIMH-PDSP radioligand binding, H1
Sequence of Histamine H1 receptor (P35367 whole entry, species assumed): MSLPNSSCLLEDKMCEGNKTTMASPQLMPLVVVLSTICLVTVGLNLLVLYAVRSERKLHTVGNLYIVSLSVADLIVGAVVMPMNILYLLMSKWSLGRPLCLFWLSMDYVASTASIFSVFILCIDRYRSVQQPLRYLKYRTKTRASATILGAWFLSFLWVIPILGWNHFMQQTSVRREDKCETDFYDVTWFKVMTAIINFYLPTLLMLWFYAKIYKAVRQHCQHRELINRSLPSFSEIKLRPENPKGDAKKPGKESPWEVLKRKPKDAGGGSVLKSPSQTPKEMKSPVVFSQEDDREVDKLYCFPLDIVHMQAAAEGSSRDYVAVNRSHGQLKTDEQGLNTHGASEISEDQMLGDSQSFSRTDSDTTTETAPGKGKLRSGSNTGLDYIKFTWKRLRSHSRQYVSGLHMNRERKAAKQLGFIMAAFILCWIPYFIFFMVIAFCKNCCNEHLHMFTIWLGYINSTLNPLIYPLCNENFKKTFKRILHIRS

Sequence of 5-HT2A receptor (P28223 whole entry): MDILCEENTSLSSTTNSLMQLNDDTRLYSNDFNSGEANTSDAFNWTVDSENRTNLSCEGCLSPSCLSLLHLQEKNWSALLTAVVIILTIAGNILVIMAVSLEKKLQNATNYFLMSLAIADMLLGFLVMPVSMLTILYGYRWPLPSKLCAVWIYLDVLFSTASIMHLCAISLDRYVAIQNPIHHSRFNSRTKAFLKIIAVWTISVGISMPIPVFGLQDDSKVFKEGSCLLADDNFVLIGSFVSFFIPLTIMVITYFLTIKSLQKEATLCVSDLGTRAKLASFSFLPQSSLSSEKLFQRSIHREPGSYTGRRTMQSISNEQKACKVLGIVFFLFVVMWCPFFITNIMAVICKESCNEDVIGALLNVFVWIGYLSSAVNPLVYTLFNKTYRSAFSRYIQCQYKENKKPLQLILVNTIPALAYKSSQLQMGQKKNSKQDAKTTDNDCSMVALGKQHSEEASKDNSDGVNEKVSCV
Sequence of D2 receptor (P14416 whole entry): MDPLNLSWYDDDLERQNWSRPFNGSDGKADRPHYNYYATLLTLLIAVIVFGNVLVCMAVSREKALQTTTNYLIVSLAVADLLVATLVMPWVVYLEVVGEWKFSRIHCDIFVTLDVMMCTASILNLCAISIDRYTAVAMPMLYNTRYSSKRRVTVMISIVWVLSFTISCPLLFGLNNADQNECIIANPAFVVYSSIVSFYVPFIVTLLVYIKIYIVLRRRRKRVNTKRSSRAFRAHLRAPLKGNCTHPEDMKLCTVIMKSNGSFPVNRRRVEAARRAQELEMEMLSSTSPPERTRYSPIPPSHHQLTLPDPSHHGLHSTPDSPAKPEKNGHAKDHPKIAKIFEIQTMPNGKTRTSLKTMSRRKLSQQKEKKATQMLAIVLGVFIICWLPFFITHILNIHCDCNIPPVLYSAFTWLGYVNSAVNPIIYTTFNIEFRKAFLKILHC

Structure (SMILES) | Binding data; Ki ± SEM, D2 [5] | Binding data; Ki ± SEM, 5-HT1A [6] | Binding data; Ki ± SEM, 5-HT2A [7] | Binding data; Ki ± SEM, 5-HT2C [8] | also measured
O=C(CCCN1CCCN(c2ccc(Cl)cc2)CC1)c1ccc(F)cc1 [Compound 2, 4-(4-(4-chlorophenyl)-1,4-diazepan-1-yl)-1-(4-fluorophenyl)butan-1-one] | – | – | – | – | catalepsy [1]: without the associated catalepsy even at five times the ED50 dose
O=C(CCCN1CCN(c2ccc(Cl)cc2)CC1)c1ccc(F)cc1 [Compound 3] | – | – | – | – | Ki [2]: 90.9 ± 21 nM; Ki [3]: 3550 ± 943 nM; Ki [4]: 17.5 ± 2 nM
Clc1ccc(N2CCCN(CCCc3nc4ccccc4s3)CC2)cc1 [Compound 14, 2-(3-(4-(4-Chlorophenyl)-1,4-diazepan-1-yl)propyl)benzo [d]thiazole] | MP (Missed primary assay threshold of 50% inhibition) | – | – | – | –
Clc1ccc(N2CCCN(Cc3nc4ccccc4s3)CC2)cc1 [Compound 15, 2-((4-(4-Chlorophenyl)-1,4-diazepan-1-yl)methyl)benzo [d]thiazole] | – | MP (Missed primary assay threshold of 50% inhibition) | MP (Missed primary assay threshold of 50% inhibition) | MP (Missed primary assay threshold of 50% inhibition) | Binding data; Ki ± SEM, D4 [9]: MP (Missed primary assay threshold of 50% inhibition); Binding data; Ki ± SEM, H1 [10]: MP (Missed primary assay threshold of 50% inhibition)
O=C(CCCN1CCCN(c2ccc(Cl)cc2)CC1)c1nc2ccccc2s1 [Compound 17, 1-(Benzo[d]thiazol-2-yl)-4-(4-(4-chlorophenyl)-1,4-diazepan-1-yl)butan-1-one] | MP (Missed primary assay threshold of 50% inhibition) | MP (Missed primary assay threshold of 50% inhibition) | – | MP (Missed primary assay threshold of 50% inhibition) | –
O=C(CCCCN1C2CCC1CC(O)(c1ccc(Cl)cc1)C2)c1nc2ccccc2s1 (stereo not shown) [Compound 18, 1-(Benzo[d]thiazol-2-yl)-5-(3-(4-chlorophenyl)-3-hydroxy-8-azabicyclo[3.2.1]octan-8-yl)pentan-1-one] | – | MP (Missed primary assay threshold of 50% inhibition) | MP (Missed primary assay threshold of 50% inhibition) | MP (Missed primary assay threshold of 50% inhibition) | –
